Data on 1 molecule can be found in PMC11784013, “Potassium molybdate blocks APN-dependent coronavirus entry by degrading receptor via PIK3C3-mediated autophagy” (Journal of Virology, 2024).

Series [1] has as its system PIK3C3. As to the kind of experiment: PIK3C3 expression in ST cells (western blot). Conditions: PM 10 mM, 16 h; for PIK3C3 level, western blot, relative to WT without PM (=1): PRCV 0.1 MOI. In kind it is cell-based, porcine. The method, then:
Fig 7 PM degrades APN expression via activating PIK3C3-mediated autophagy. (A) Graphical representation for autophagy and the targets of different autophagy inhibitors. (B) ST cells were treated with PM (10 mM) in the presence and absence of 3-MA (20 mM), SBI0206965 (20 µM), and 3BDO (30 µM) for 16 h, and the APN expression was detected by western blot. (C) ST cells were treated with PM (10 mM) in the presence and absence of 3-MA (20 mM) for 16 h, and the APN, PIK3C3, ATG14, BECN1, P62, and LC3 were measured by western blot. (D) ST cells were transfected with PIK3C3 siRNA-1, PIK3C3 siRNA-2, PIK3C3 siRNA-3, PIK3C3 siRNA-4, and NC siRNA for 24 h, the PIK3C3 expression was detected by western blot. (E) ST cells were transfected with PIK3C3 siRNA-4 or NC siRNA for 24 h and then treated with PM (10 mM) for 16 h. The APN, PIK3C3, ATG14, BECN1, P62, and LC3 were detected by western blot. (F) Sequencing diagram for WT ST cells and PIK3C3 KO ST cells. (G) PIK3C3 was detected by western blot in WT ST cells and PIK3C3 KO ST cells. (H) WT ST cells and PIK3C3 KO ST cells were treated with PM (10 mM) for 16 h and then the APN, PIK3C3, ATG14, BECN1, P62, and LC3 were detected by western blot. (I) WT ST cells and PIK3C3 KO ST cells were transfected with pCMV-Myc and pCMV-Myc-PIK3C3, respectively, for 24 h and treated with PM (10 mM) for 16 h. The APN, PIK3C3, P62, and LC3 were detected by western blot. All western blot results were calculated by Image J. All experiments were performed in triplicate.
Fig. S8. PM inhibits PRCV infection by degrading APN via PIK3C3-mediated autophagy. (A-C) WT ST cells and PIK3C3 KO ST cells were treated with PM (10 mM) and infected with PRCV (0.1 MOI) for 16 h. Then the APN, PIK3C3, ATG14, BECN1, P62, PRCV N and LC3 were detected by western blot (A), and viral titers and PRCV N mRNA level were determined by TCID50 (B) and RT-qPCR (C) . […] The APN, PIK3C3, P62, PRCV N and LC3 were determined by western blot (D). […]
Background: A western blot detects proteins with antibodies after separation by electrophoresis.

Series [2] is classed as in vivo. The settings on record: piglets, oral PM 100 mg/kg. The method, then:
Neonatal pigs spontaneously delivered from sows were confirmed to be negative for TGEV by RT-qPCR and enzyme-linked immunosorbent assay. For the cytotoxicity and pharmacokinetic parameters of the PM, three piglets were orally administered PM (100 mg/kg), and the serum was collected by venipuncture at 0, 1, 2, 4, 6, 8, 10, 12, 16, and 24 h after oral administration of PM for cytotoxicity assays and pharmacokinetic parameter determination. For antiviral animal experiments, piglets were randomly separated into four groups: the mock group ([3]), TGEV group ([3]), TGEV-PM-therapy group ([3]), and TGEV-PM-prevention group ([3]). For the TGEV group, neonatal pigs were orally administered 1.245 × 10^8 PFU TGEV Miller for 24 h. In addition, piglets in the TGEV-PM therapy group were orally infected with 1.245 × 10^8 PFU TGEV Miller and then treated with PM (100 mg/kg). For the TGEV-PM-prevention group, three neonatal pigs were orally pretreated with PM (100 mg/kg) for 24 h and subsequently inoculated with 1.245 × 10^8 PFU TGEV Miller for 24 h. The body weights of all piglets were recorded, and anal swabs were collected every 12 h. At 24 hpi, all pigs were euthanized, and intestinal tissues were collected for RT-qPCR, western blot, IFA, and pathological examination. All animals were handled in strict accordance with good animal practice according to the Animal Ethics Procedures and Guidelines of the People’s Republic of China, and the study was approved by The Animal Administration and Ethics Committee of Lanzhou Veterinary Research Institute, Chinese Academy of Agricultural Sciences (Permit No. LVRIAEC-2020-030).
Fig. S9. Cytotoxicity assay and t1/2 detection of PM in piglets. (A) The serum of piglets orally administered PM were collected at 1, 2, 4, 6, 8, 10, 12, 16 and 24 hours respectively and AST, CK and CREA level in those sera were measured by biochemical parameters. (B) PM concentrations at indicated times in piglets were determined by ICP-MS. Results are presented as mean ± SD of data from three independent experiments ns, no significant.

On to `[K+].[K+].[O]=[Mo](=[O])([O-])[O-]` [PM, potassium molybdate], for which the “PIK3C3 level, western blot, relative to WT without PM (=1)” value in series [1] (Fig. S8A, WT ST cells) is reported as 2.83. Moreover, the “PIK3C3 level, western blot, relative to WT without PM (=1)” value in series [1] (Fig. S8D, WT ST cells with pCMV-Myc) is 1.73. Further, in series [1] (ST cells, western blot), the PIK3C3 expression result is given as “activated PIK3C3 expression”. In addition, the t1/2 entry in series [2] is “approximately 12 h”. In addition, in series [2] (serum, mean ± SD), the “AUC(0-t)” value was found to be 975.253 ± 33.380 mg·h/L, the “AUC(0-∞)” value is 1,341.054 ± 21.475 mg/L*h, the CLz/F is reported as 0.074 ± 0.001 L/h/kg and the Cmax is recorded as 62.645 ± 0.677 mg/L. Besides, in series [2] (serum, mean ± SD), the “MRT(0-t)” value is 10.735 ± 0.155 h, the “MRT(0-∞)” value is recorded as 19.027 ± 1.388 h, the Tmax is 7.333 ± 2.309 h and the Vz/F is listed as 1.267 ± 0.093 L/kg. The molecule also registered a t1/2z in series [2] (serum, mean ± SD) of 11.784 ± 0.954 h.

One may read the AUC(0-t) as the area under the concentration-time curve up to a stated or last time point. For orientation: Cmax means the highest concentration seen after dosing. Broadly, the Tmax is the time at which the peak concentration occurs.
